Columns and labels:
[1] = system: carrageenan-induced monoarthritis in rat; test: Monoarthritis induced by carrageenan, Paw Print setup (hindpaw weight-bearing, "Walking pain"); assay type: in vivo; conditions: for difference in weight bearing between the hind paws: three hours after carrageenan (two hours after administration), vehicle group 30.2±3.2%, mean ±SEM, n=8
Description: The compounds used according to the invention when given by systemic administration to mice or rats, specifically reduce pain in the rat carrageenan test as described by Tonussi and Ferreira (Pain 1992, 48, 421-427). One single injection of carrageenan directly into the rat knee joint produces symptoms peaking at 3 to 4 hours and lasting for one to two days, and which are sensitive to treatment by most anti-nociceptive drugs (Tonussi and Ferreira, Pain 1992, 48, 421-427). Under isoflurane anesthesia, 50 μL of carrageenan (7.5 mg/mL) was injected into the left tibio-tarsal (ankle) joint from the dorsal side. This injection causes a localized inflammation increasing to a maximum between 4 h to 8 h after induction, after which it gradually decreases, and the animals display decreased weight bearing on and guarding of the limb. The Paw Print walkway consists of a 100×10 cm path with an access point at one short end and an exit at the other, and the rats are trained to make a swift, continuous passage. The walkway has a glass floor where light is projected into one long edge via fiber optics. Projecting the light in this fashion allows for virtually complete internal reflection within the glass floor. Only where an object touches the glass, such as the placement of a rat paw, light is scattered at the point of contact and produces an illuminated print (Betts, Duckworth, Eng. Med. 1978, 7, 223-228) that is recorded by a wide-angle camera placed under the walkway. The light intensity (range 0-255) of the illumination depends on the degree of contact against the floor and increases with the applied pressure (Clarke, Physiology & Behavior 1995, 58, 415-419). The Paw Print setup is a modified version of the CatWalk introduced by […], van Laar, Veldhuis, Gispen (J. Neurotrauma 2001, 18, 187-201), and has a computerized gait detection algorithm extracting several parameters pertaining to the rat's gait pattern and weight-bearing. The animals were trained to cross the walkway twice, one and two days before induction of monoarthritis. Recordings were subsequently made on the day of testing, immediately before, and three and five hours after carrageenan injection, corresponding to two and four hours after per oral administration of test compound. The following parameters were used for analysis: Weight-bearing per paw=The total sum of maximum light intensities for all pixels in the print of one paw is multiplied by the number of pixels of the print area. A paw placement consists of a number of pixels with light intensity above a certain threshold value (80 in this study). During the time course of one paw placement, a maximum value of light intensity is recorded for each pixel. Based on the weight-bearing results, the Paw Print algorithm chooses the median print per paw in one walkway crossing. The median weight-bearing of each paw constitutes a percentage of the sum of all four paws' median weight-bearing results. The difference in percent weight-bearing between the two hind paws is shown (“Walking pain”). The test compounds were administered 60 min after induction of monoarthritis. […] Results were analysed using 1-Way ANOVA followed by Newman-Keuls for comparison between treatment groups for data obtained at each time-point after administration. The level of significance was set at p<0.05 (SigmaStat® 2.03).

human Trk A kinase = molecular target: T1, human Trk A kinase (Homo sapiens, UniProt P04629); test: Trk A kinase assay (Alphascreen); assay type: biochemical; conditions: 70 μM ATP, 20 minutes, room temperature
T1 construct: HIS; made in house; host or cells: SF9 cells
Description: After incubation of the kinase with a biotinylated substrate and adenosine triphosphate (ATP) for 20 minutes at room temperature, the kinase reaction was stopped by the addition of 30 mM ethylenediaminetetraacetic acid (EDTA). The reaction was performed in 384 well microtitre plates and the reaction products were detected with the addition of strepavidin coated Donor Beads and phosphotyrosine-specific antibodies coated Acceptor Beads using the EnVision Multilabel Plate Reader after an overnight incubation at room temperature.

T1 sequence (P04629 442-796): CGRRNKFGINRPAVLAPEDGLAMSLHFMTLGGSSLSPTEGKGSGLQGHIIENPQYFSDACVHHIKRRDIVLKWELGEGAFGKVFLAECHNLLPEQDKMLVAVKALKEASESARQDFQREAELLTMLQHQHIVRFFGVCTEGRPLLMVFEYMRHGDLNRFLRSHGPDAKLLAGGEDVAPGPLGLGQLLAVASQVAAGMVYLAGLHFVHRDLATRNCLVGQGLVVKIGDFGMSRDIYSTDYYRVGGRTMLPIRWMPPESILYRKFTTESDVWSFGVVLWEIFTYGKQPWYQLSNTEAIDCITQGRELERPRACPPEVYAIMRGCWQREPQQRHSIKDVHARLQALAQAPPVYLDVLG

## CC(C)Oc1cc(Nc2nc(N[C@@H](C)c3ccc(F)cn3)ncc2Cl)n[nH]1 [5-Chloro-N^2-[(1S)-1-(5-fluoropyridin-2-yl)ethyl]-N^4-(5-isopropoxy-1H-pyrazol-3-yl)pyrimidine-2,4-diamine]
[1]; 30 μmol/kg per oral
  difference in weight bearing between the hind paws: 9.2±4.0%
[1]; 120 μmol/kg per oral
  difference in weight bearing between the hind paws: 14.9±4.4%
[1]; all doses (30 μmol/kg, 60 μmol/kg p.o.)
  effect on the inflammatory pain induced by intra-articular ankle injection of carrageenan: significant effect
[1]; all three doses 30, 60 and 120 μmol/kg per oral, both at two and four hours after administration, p<0.05
  hindpaw weight distribution compared to the vehicle group: significantly reduced
[1]; dose interval tested, 30-120 μmol/kg per oral
  dose dependence of the effect on hindpaw weight distribution: no apparent dose dependence

## C[C@H](Nc1ncc(Br)c(Nc2cc(C3CC3)[nH]n2)n1)c1ccc(F)cn1 [(S)-5-Bromo-N^4-(5-cyclopropyl-1H-pyrazol-3-yl)-N^2-(1-(5-fluoropyridin-2-yl)ethyl)pyrimidine-2,4-diamine]
Human Trk A kinase
  IC50: 5 nM

## C[C@H](Nc1ncc(Cl)c(Nc2cc(C3CC3)[nH]n2)n1)c1ccc(F)cn1 [(S)-5-Chloro-N^4-(5-cyclopropyl-1H-pyrazol-3-yl)-N^2-(1-(5-fluoropyridin-2-yl)ethyl)pyrimidine-2,4-diamine]
Human Trk A kinase
  IC50: 8 nM

## C[C@H](Nc1ncc(F)c(Nc2cc(C3CC3)[nH]n2)n1)c1ccc(F)cn1 [(S)-5-Fluoro-N^4-(5-cyclopropyl-1H-pyrazol-3-yl)-N^2-(1-(5-fluoropyridin-2-yl)ethyl)pyrimidine-2,4-diamine]
Human Trk A kinase
  IC50: 10 nM

— patent publication US20080108633A1, “Use 540” (AstraZeneca AB, priority 2006, published 2008)
